From patent US10959992B2, “Methods of treatment of asthma and COPD” (Bridge Pharma, Inc., priority 2019, dated 2021)
Blank lines part the entries; values can stand above or below the molecule they belong to.

Tests used:
PAF-induced eosinophilia = experiment: PAF-induced pulmonary eosinophil accumulation after continuous subcutaneous dosing; type: in vivo, Sprague-Dawley rats; conditions: 1 mg/kg/day sc for 6 days, rats; BSA + saline control 100, PAF control 250
Description: Male Sprague-Dawley rats, 400-600 g, were used in these studies.
The study described here used subcutaneous administration of norketotifen and ketotifen by Alzet® osmotic pumps. The rats were administered either RS-norketotifen hydrogen fumarate (1.0 mg/kg/day) or RS-ketotifen hydrogen fumarate (1.0 mg/kg/day) or saline. After five days of sc infusions of test articles and the vehicle, the animals were injected, i.p. with 10 μg PAF (platelet aggregating factor) in 0.25% bovine serum albumin (BSA) in saline. The subcutaneous infusions of test articles or vehicle were continued for another twenty-four hours and the animals were then sacrificed by intraperitoneal injections of a barbiturate. The tracheae of the euthanized animals were exposed and cannulated and aliquots (6×10 ml) of a Tyrode solution were successively introduced into the lungs and aspirated by gentle compression of the thorax. The total recovery of lung fluid was usually above 80%. The cell suspensions were concentrated by low speed centrifugation (200 g for 10 min) and the resulting cell pellet was resuspended in 1 ml of a Tyrode solution. Total cell counts were performed after dilution in Turks fluid, fixation in methanol and Leishman staining.
The study shown here used norketotifen, ketotifen, and saline (control) after continuous dosing with Alzet® Osmotic pumps.

sedation = conditions: art-accepted mouse model of sedation; U.S. Pat. Nos. 7,226,934 and 7,557,128; cited from earlier work
TNF-α = experiment: PHA-induced release of TNF-α from human buffy coats; type: cell-based; conditions: 10 uM; PHA 5 μg/ml, 16 hours; inhibition
Description: (§1) The study was conducted in two phases. The first phase included optimization of the test methodology and included also dose-range finding studies, using buffy coats from 3 human donors, stimulated with phytohemagglutinin (PHA). The concentrations of the test article and the duration of exposure were optimized to obtain acceptable dose-response ratios. Following optimization of the test conditions, a final protocol was issued. In the Main Study, buffy coats from 5 healthy human male donors were stimulated with PHA, 5 μg/ml.
(§2) The inhibitory effects of three concentrations of NK and one concentration of ketotifen were evaluated in the Main Study. The buffy coats were resuspended in assay media and were pre-incubated for 30 min with either vehicle/saline, ketotifen (10 μM) or norketotifen (1.0; 10 or 100 μM). Following these preincubations, the white blood cell suspensions were stimulated for 16 hours with PHA, 5 μg/ml. The cell system supernatants were then harvested and stored frozen.

IFN-γ = experiment: PHA-induced release of IFN-γ from human buffy coats; type: cell-based; conditions: 10 uM; PHA 5 μg/ml, 16 hours; inhibition
Description: as §1, §2

IL-4 = experiment: PHA-induced release of IL-4 from human buffy coats; type: cell-based; conditions: 10 uM; PHA 5 μg/ml, 16 hours; inhibition
Description: as §1, §2

IL-13 = experiment: PHA-induced release of IL-13 from human buffy coats; type: cell-based; conditions: 10 uM; PHA 5 μg/ml, 16 hours; inhibition
Description: as §1, §2

IL-8 = experiment: PHA-induced release of IL-8 from human buffy coats; type: cell-based; conditions: 10 uM; PHA 5 μg/ml, 16 hours; inhibition
Description: as §1, §2

IL-6 = experiment: PHA-induced release of IL-6 from human buffy coats; type: cell-based; conditions: 10 uM; PHA 5 μg/ml, 16 hours; inhibition
Description: as §1, §2

IL-1β = experiment: PHA-induced release of IL-1β from human buffy coats; type: cell-based; conditions: 10 uM; PHA 5 μg/ml, 16 hours; inhibition
Description: as §1, §2

IL-10 = experiment: PHA-induced release of IL-10 from human buffy coats; type: cell-based; conditions: 10 uM; PHA 5 μg/ml, 16 hours; inhibition
Description: as §1, §2

IL-2 = experiment: PHA-induced release of IL-2 from human buffy coats; type: cell-based; conditions: 10 uM; PHA 5 μg/ml, 16 hours; inhibition
Description: as §1, §2

[1] = system: oxazolone-induced increase in ear thickness; experiment: Oxazolone test of immunosuppression (ear thickness); type: in vivo, BALB/c mice; conditions: for Increase in ear thickness (mm): control 0.153; for Increase in ear thickness (%): control 100.0
Description: Male BALB/c mice, 20-24 grams, 7-12 weeks, were used. The sensitization dosing (Day 1) consisted of painting the ventral portion of the pre-shaved abdominal skin with 0.1 ml of 3.0% oxazolone in 70% ethanol. Test articles were administered orally in 1.0% methyl-cellulose, starting on Day 1 and continuing for 10 consecutive days. The challenge dosing consisted of the application of 0.05 ml of 3.0% oxazolone in 70% ethanol on both sides of the outer pinna of the right ear. The thickness of both ears of all animals was measured with a calliper before the challenge dose and 24 hours after the administration of the challenge dose (Day 10). The ear thickness of untreated mice was 0.19 to 0.20 mm.
Justification of the model: The classic oxazolone test method was used with minor modifications. This method has been used for over 40 years in numerous drug development projects.

[2] = system: croton oil-induced ear swelling; experiment: Croton oil-induced ear swelling; type: in vivo, CD-1 female mice; set-up: Average ear thickness: unit not given beside the values; conditions: for Average ear thickness: single oral dose 10 mg/kg 60 min before
Description: The effects of NK, PRED and the vehicle (5% PEG in water) were tested orally in CD-1 female mice. Under the test protocol, 20 μl of 1.0% croton oil in acetone was applied topically to both ears of three groups of mice, each group consisting of 6 mice. No attempt was made to remove the croton oil solution since the solvent evaporated within 30 seconds. The oral doses of NK and PRED were 10 mg/kg (10 ml/kg) bodyweight for both compounds and were administered 60 min before the croton oil applications. Vehicle-treated mice were dosed 10 ml/kg of water, containing 5% polyethylene glycol (PEG), which was also the solvent for the test articles. Ear thickness was measured with an electronic caliper and mean ear thickness (N=12; right+left ears) were calculated and compared with the thickness of ears from vehicle-treated mice (Student's t-test).

Structure (SMILES): O=C(O)C=CC(=O)O.O=C1Cc2ccccc2C(=C2CCNCC2)c2ccsc21 [Norketotifen HF, RS-norketotifen hydrogen fumarate]
- PAF-induced esosinophilia (% ± SEM) (PAF-induced eosinophilia): 74 ± 4%

Structure (SMILES): O=C(O)/C=C/C(=O)O.O=C1Cc2ccccc2C(=C2CCNCC2)c2ccsc21 [R-isomer, R-norketotifen]
- Sedative effects (sedation): sedative effects were attributed to the R-isomer

Structure (SMILES): CN1CCC(=C2c3ccccc3CC(=O)c3sccc32)CC1.O=C(O)/C=C/C(=O)O [Ketotifen HF, RS-ketotifen hydrogen fumarate, reference compound]
- PAF-induced esosinophilia (% ± SEM) (PAF-induced eosinophilia): 110 ± 3%

Structure (SMILES): CN1CCC(=C2c3ccccc3CC(=O)c3sccc32)CC1 [Ketotifen, ketotifen, reference compound]
- Effect on PHA-induced release of TNF-α (%) (TNF-α): 39.98%
- Effect on PHA-induced release of IFN-γ (%) (IFN-γ): 0.00%
- Effect on PHA-induced release of IL-4 (%) (IL-4): 0.00%
- Effect on PHA-induced release of IL-13 (%) (IL-13): 0.00%
- Effect on PHA-induced release of IL-8 (%) (IL-8): 30.73%
- Effect on PHA-induced release of IL-6 (%) (IL-6): 0.00%
- Effect on PHA-induced release of IL-1β (%) (IL-1β): 0.00%
- Effect on PHA-induced release of IL-10 (%) (IL-10): 0.00%
- Effect on PHA-induced release of IL-2 (%) (IL-2): 0.00%

- Immunosuppression (%) ([1]; 0.3 mg/kg/day oral for 10 days): 29.4%
- Increase in ear thickness (mm) ([1]; 0.3 mg/kg/day oral for 10 days): 0.108 mm
- Increase in ear thickness (%) ([1]; 0.3 mg/kg/day oral for 10 days): 70.6%
- Immunosuppression (%) ([1]; 1.0 mg/kg/day oral for 10 days): 45.0%
- Increase in ear thickness (mm) ([1]; 1.0 mg/kg/day oral for 10 days): 0.084 mm
- Increase in ear thickness (%) ([1]; 1.0 mg/kg/day oral for 10 days): 55.0%
- Immunosuppression (%) ([1]; 3.0 mg/kg/day oral for 10 days): 50.3%
- Increase in ear thickness (mm) ([1]; 3.0 mg/kg/day oral for 10 days): 0.076 mm
- Increase in ear thickness (%) ([1]; 3.0 mg/kg/day oral for 10 days): 49.7%
Structure (SMILES): C[C@]12C=CC(=O)C=C1CC[C@@H]1[C@@H]2[C@@H](O)C[C@@]2(C)[C@H]1CC[C@]2(O)C(=O)CO [PRED, prednisolone]
- Immuno-suppressant activity (conclusion in words) ([1]; daily oral dosing for 10 days to mice, RS-norketotifen 10 or 30 mg/kg, prednisolone at 10 times lower doses): potent and dose-dependent immune suppression
- Average ear thickness ([2]; 0 (predose) min after croton oil, vehicle 0.21 ± 0.02): 0.22 ± 0.01
- Average ear thickness ([2]; 90 min after croton oil, vehicle 0.29 ± 0.04): 0.28 ± 0.01
- Average ear thickness ([2]; 120 min after croton oil, vehicle 0.28 ± 0.02): 0.27 ± 0.01
- Anti-inflammatory effect compared with vehicle control group (conclusion in words) ([2]; single oral dose 10 mg/kg, croton oil ear swelling in mice): did not express statistically significant anti-inflammatory effect
